Experimental data reported in patent US8569292B2, “Cyclic inhibitors of 11β-hydroxysteroid dehydrogenase 1” (Vitae Pharmaceuticals, Inc., priority 2008, dated 2013).

Experiments:
[1] = biological target: T1, 11β-HSD1 (Homo sapiens, UniProt P28845); assay: biochemical; conditions: for inhibition at 0.1 µM: read-out: Average % inhibition at 100 nM
[2] = biological target: T1, 11β-HSD1; assay: Biological Test Example 4: microsomal 11β-HSD1 in the presence of 50% human plasma; conditions: for Shift: IC50 in Test Example 4 divided by IC50 in Test Example 1
[3] = Biological Test Example 1 IC50 (nM)
[4] = IC50 Range, Biological Test Example 1

T1 sequence (P28845 whole entry): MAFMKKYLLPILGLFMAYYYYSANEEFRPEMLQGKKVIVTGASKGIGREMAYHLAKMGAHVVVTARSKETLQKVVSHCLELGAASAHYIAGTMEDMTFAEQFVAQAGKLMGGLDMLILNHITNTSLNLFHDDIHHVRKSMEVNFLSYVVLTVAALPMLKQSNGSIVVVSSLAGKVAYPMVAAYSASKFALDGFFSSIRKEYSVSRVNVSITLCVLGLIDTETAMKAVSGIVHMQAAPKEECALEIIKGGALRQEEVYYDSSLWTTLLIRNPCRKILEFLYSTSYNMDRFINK

C[C@@H](c1ccc(-c2ccc(C(=O)NC3CC3)cn2)cc1)N1CC[C@](CC(C)(C)C#N)(c2ccccc2)OC1=O [EXAMPLE 2, 6-(4-((S)-1-((R)-6-(2-cyano-2-methylpropyl)-2-oxo-6-phenyl-1,3-oxazinan-3-yl)ethyl)phenyl)-N-cyclopropylnicotinamide]
IC50 [1, 3]: 0.8 nM | IC50 [1, 4]: < 100 nM | inhibition at 0.1 µM [1]: 99% | IC50 [2]: 2.9 nM | Shift [2]: 3.8

C[C@@H](c1ccc(-c2ccc(C(C)(C)C)nn2)cc1)N1CC[C@](CC(C)(C)O)(c2ccccc2)OC1=O [EXAMPLE 6, (S)-3-((S)-1-(4-(6-tert-butylpyridazin-3-yl)phenyl)ethyl)-6-(2-hydroxy-2-methylpropyl)-6-phenyl-1,3-oxazinan-2-one]
IC50 [1, 3]: 1 nM | IC50 [1, 4]: < 100 nM | inhibition at 0.1 µM [1]: 96.3% | IC50 [2]: 8.6 nM | Shift [2]: 8.4

Cc1ncc(-c2ccc([C@H](C)N3CC[C@](CCc4nnc(C)o4)(c4ccccc4)OC3=O)cc2)cn1 [EXAMPLE 18, (R)-6-(2-(5-methyl-1,3,4-oxadiazol-2-yl)ethyl)-3-((S)-1-(4-(2-methylpyrimidin-5-yl)phenyl)ethyl)-6-phenyl-1,3-oxazinan-2-one]
IC50 [1, 3]: > 100 nM | IC50 [1, 4]: > 100 nM | inhibition at 0.1 µM [1]: 13.7%

C[C@@H](c1ccc(-c2ncc(C(=O)NC3CC3)s2)cc1)N1CC[C@](CC(C)(C)C#N)(c2ccccc2)OC1=O [EXAMPLE 21, 2-(4-((S)-1-((R)-6-(2-cyano-2-methylpropyl)-2-oxo-6-phenyl-1,3-oxazinan-3-yl)ethyl)phenyl)-N-cyclopropylthiazole-5-carboxamide]
IC50 [1, 3]: 0.4 nM | IC50 [1, 4]: < 100 nM | inhibition at 0.1 µM [1]: 99.2% | IC50 [2]: 3.4 nM | Shift [2]: 7.8

C[C@@H](c1ccc(-c2ncc(C(=O)NC(C)(C)C)s2)cc1)N1CC[C@](CC(C)(C)O)(c2ccccc2)OC1=O [EXAMPLE 23, N-tert-butyl-2-(4-((S)-1-((S)-6-(2-hydroxy-2-methylpropyl)-2-oxo-6-phenyl-1,3-oxazinan-3-yl)ethyl)phenyl)thiazole-5-carboxamide]
IC50 [1, 3]: 2.7 nM | IC50 [1, 4]: < 100 nM | inhibition at 0.1 µM [1]: 89.3% | IC50 [2]: 13.7 nM | Shift [2]: 5.1

C[C@@H](c1ccc(-c2ncc(C(=O)NC(C)(C)C)s2)cc1)N1CC[C@](CC(C)(C)C#N)(c2ccccc2)OC1=O [EXAMPLE 24, N-tert-butyl-2-(4-((S)-1-((R)-6-(2-cyano-2-methylpropyl)-2-oxo-6-phenyl-1,3-oxazinan-3-yl)ethyl)phenyl)thiazole-5-carboxamide]
IC50 [1, 3]: 0.8 nM | IC50 [1, 4]: < 100 nM | inhibition at 0.1 µM [1]: 96.9% | IC50 [2]: 4.4 nM | Shift [2]: 5.2

Cc1cn(-c2ncc(-c3ccc([C@H](C)N4CC[C@](CC(C)(C)O)(c5ccccc5)OC4=O)cc3)cn2)c(C)n1 [EXAMPLE 26, (S)-3-((S)-1-(4-(2-(2,4-dimethyl-1H-imidazol-1-yl)pyrimidin-5-yl)phenyl)ethyl)-6-(2-hydroxy-2-methylpropyl)-6-phenyl-1,3-oxazinan-2-one]
IC50 [1, 3]: 1.7 nM | IC50 [1, 4]: < 100 nM | inhibition at 0.1 µM [1]: 95.2% | IC50 [2]: 6.8 nM | Shift [2]: 4.1

Cc1nccn1-c1ncc(-c2ccc([C@H](C)N3CC[C@](CC(C)(C)O)(c4ccccc4)OC3=O)cc2)cn1 [EXAMPLE 27, (S)-6-(2-hydroxy-2-methylpropyl)-3-((S)-1-(4-(2-(2-methyl-1H-imidazol-1-yl)pyrimidin-5-yl)phenyl)ethyl)-6-phenyl-1,3-oxazinan-2-one]
IC50 [1, 3]: 1.2 nM | IC50 [1, 4]: < 100 nM | inhibition at 0.1 µM [1]: 96.8% | IC50 [2]: 4.7 nM | Shift [2]: 3.8

C[C@@H](c1ccc(-c2cccc(OC3CCCC3)n2)cc1)N1CC[C@](CC(C)(C)O)(c2ccccc2)OC1=O [EXAMPLE 28, (S)-3-((S)-1-(4-(6-(cyclopentyloxy)pyridin-2-yl)phenyl)ethyl)-6-(2-hydroxy-2-methylpropyl)-6-phenyl-1,3-oxazinan-2-one]
IC50 [1, 3]: 1.4 nM | IC50 [1, 4]: < 100 nM | inhibition at 0.1 µM [1]: 89.7% | IC50 [2]: 186 nM | Shift [2]: 129.7

C[C@@H](c1ccc(-c2ncc(C(C)(C)O)cn2)cc1)N1CC[C@](CC(C)(C)O)(c2ccccc2)OC1=O [EXAMPLE 29, (S)-6-(2-hydroxy-2-methylpropyl)-3-((S)-1-(4-(5-(2-hydroxypropan-2-yl)pyrimidin-2-yl)phenyl)ethyl)-6-phenyl-1,3-oxazinan-2-one]
IC50 [1, 3]: 12.2 nM | IC50 [1, 4]: < 100 nM | inhibition at 0.1 µM [1]: 83.8%

CC1(c2ccccc2)CCN(c2cccc(-c3ccncc3)c2)C(=O)O1 (stereo not drawn) [EXAMPLE 33, 6-methyl-6-phenyl-3-(3-(pyridin-4-yl)phenyl)-1,3-oxazinan-2-one]
IC50 [1, 3]: 305 nM | IC50 [1, 4]: 100 to 1000 nM | inhibition at 0.111 µM ([1]; read-out: average % inhibition at 111 nM): 37.1%

C=CC[C@]1(c2ccc(F)cc2)CCN([C@@H](C)c2ccc(-c3nnc(C)s3)cc2)C(=O)O1 [EXAMPLE 39, (R)-6-allyl-6-(4-fluorophenyl)-3-((S)-1-(4-(5-methyl-1,3,4-thiadiazol-2-yl)phenyl)ethyl)-1,3-oxazinan-2-one]
IC50 [1, 3]: 5.2 nM | IC50 [1, 4]: < 100 nM | inhibition at 0.1 µM [1]: 73.6%

C=CC[C@]1(c2ccccc2)CCN([C@@H](C)c2ccc(-c3cncc(F)c3)cc2)C(=O)O1 [EXAMPLE 46, (R)-6-allyl-3-((S)-1-(4-(5-fluoropyridin-3-yl)phenyl)ethyl)-6-phenyl-1,3-oxazinan-2-one]
IC50 [1, 3]: 0.8 nM | IC50 [1, 4]: < 100 nM | inhibition at 0.1 µM [1]: 93.4%

C[C@@H](c1ccc(-c2ccc[n+]([O-])c2)cc1)N1CC[C@](CCC(N)=O)(c2ccccc2)OC1=O [EXAMPLE 50, 3-(4-((S)-1-((R)-6-(3-amino-3-oxopropyl)-2-oxo-6-phenyl-1,3-oxazinan-3-yl)ethyl)phenyl)pyridine 1-oxide]
IC50 [1]: < 100 nM | IC50 [1, 3]: 29.1 nM | inhibition at 0.1 µM [1]: 81.2%

C[C@@H](c1ccc(-c2ccc[n+]([O-])c2)cc1)N1CC[C@](CCC(N)=O)(c2ccc(F)cc2)OC1=O [EXAMPLE 68, 3-(4-((S)-1-((R)-6-(3-amino-3-oxopropyl)-6-(4-fluorophenyl)-2-oxo-1,3-oxazinan-3-yl)ethyl)phenyl)pyridine 1-oxide]
IC50 [1, 3]: 85.1 nM | IC50 [1, 4]: < 100 nM | inhibition at 0.1 µM [1]: 50%

C[C@@H](c1ccc(-c2cncc(F)c2)cc1)N1CC[C@](CCC(=O)O)(c2ccc(F)cc2)OC1=O [EXAMPLE 70, 3-((R)-6-(4-fluorophenyl)-3-((S)-1-(4-(5-fluoropyridin-3-yl)phenyl)ethyl)-2-oxo-1,3-oxazinan-6-yl)propanoic acid]
IC50 [1, 3]: 99.6 nM | IC50 [1, 4]: < 100 nM | inhibition at 0.1 µM [1]: 49.7%

C[C@@H](c1ccc(-c2cncc(C(N)=O)c2)cc1)N1CC[C@](CCCO)(c2ccc(F)cc2)OC1=O [EXAMPLE 71, 5-(4-((S)-1-((R)-6-(4-fluorophenyl)-6-(3-hydroxypropyl)-2-oxo-1,3-oxazinan-3-yl)ethyl)phenyl)nicotinamide]
IC50 [1, 3]: 44.1 nM | IC50 [1, 4]: < 100 nM | inhibition at 0.1 µM [1]: 68.7%

C[C@@H](c1ccc(-c2cncc(C(=O)N(C)C)c2)cc1)N1CC[C@](CCCO)(c2ccc(F)cc2)OC1=O [EXAMPLE 72, 5-(4-((S)-1-((R)-6-(4-fluorophenyl)-6-(3-hydroxypropyl)-2-oxo-1,3-oxazinan-3-yl)ethyl)phenyl)-N,N-dimethylnicotinamide]
IC50 [1, 3]: 43.5 nM | IC50 [1, 4]: < 100 nM | inhibition at 0.1 µM [1]: 64.8%

CNC(=O)c1cncc(-c2ccc([C@H](C)N3CC[C@](CCCO)(c4ccc(F)cc4)OC3=O)cc2)c1 [EXAMPLE 73, 5-(4-((S)-1-((R)-6-(4-fluorophenyl)-6-(3-hydroxypropyl)-2-oxo-1,3-oxazinan-3-yl)ethyl)phenyl)-N-methylnicotinamide]
IC50 [1, 3]: 46.9 nM | IC50 [1, 4]: < 100 nM | inhibition at 0.1 µM [1]: 65.3%

Cc1cc(-c2ccc([C@H](C)N3CC[C@](CCC(C)(C)O)(c4ccc(F)cc4)OC3=O)cc2)ccn1 [EXAMPLE 79, (R)-6-(4-fluorophenyl)-6-(3-hydroxy-3-methylbutyl)-3-((S)-1-(4-(2-methylpyridin-4-yl)phenyl)ethyl)-1,3-oxazinan-2-one]
IC50 [1, 3]: 28.3 nM | IC50 [1, 4]: < 100 nM | inhibition at 0.1 µM [1]: 76.9%

Cc1cc(-c2ccc([C@H](C)N3CC[C@](CCCO)(c4ccc(F)cc4)OC3=O)cc2)cc(C)n1 [EXAMPLE 81, (R)-3-((S)-1-(4-(2,6-dimethylpyridin-4-yl)phenyl)ethyl)-6-(4-fluorophenyl)-6-(3-hydroxypropyl)-1,3-oxazinan-2-one]
IC50 [1, 3]: 0.6 nM | IC50 [1, 4]: < 100 nM | inhibition at 0.1 µM [1]: 99.3%

Cc1cc(-c2ccc([C@H](C)N3CC[C@](CCCN4CCCC4=O)(c4ccccc4)OC3=O)cc2)ccn1 [EXAMPLE 104, (R)-3-((S)-1-(4-(2-methylpyridin-4-yl)phenyl)ethyl)-6-(3-(2-oxopyrrolidin-1-yl)propyl)-6-phenyl-1,3-oxazinan-2-one]
IC50 [1, 3]: 9.2 nM | IC50 [1, 4]: < 100 nM | inhibition at 0.1 µM [1]: 88%

C[C@@H](c1ccc(-c2ccc(OCC(C)(C)O)nc2)cc1)N1CC[C@](CC(C)(C)O)(c2ccccc2)OC1=O [EXAMPLE 198, (S)-3-((S)-1-(4-(6-(2-hydroxy-2-methylpropoxy)pyridin-3-yl)phenyl)ethyl)-6-(2-hydroxy-2-methylpropyl)-6-phenyl-1,3-oxazinan-2-one]
IC50 [1, 3]: 1 nM | IC50 [1, 4]: < 100 nM | inhibition at 0.1 µM [1]: 92.4%

CC(C)[C@@]1(CC(C)(C)O)CCN([C@@H](C)c2ccc(-c3cnc(C(=O)NC4CC4)nc3)cc2)C(=O)O1 [EXAMPLE 199, N-cyclopropyl-5-(4-((S)-1-((S)-6-(2-hydroxy-2-methylpropyl)-6-isopropyl-2-oxo-1,3-oxazinan-3-yl)ethyl)phenyl)pyrimidine-2-carboxamide]
IC50 [1, 3]: 63.5 nM | IC50 [1, 4]: < 100 nM | inhibition at 0.1 µM [1]: 62.9%

COc1cc(-c2ccc([C@H](C)N3CC[C@](CC(C)(C)O)(c4ccccc4)OC3=O)cc2)ccn1 [EXAMPLE 210, (S)-6-(2-hydroxy-2-methylpropyl)-3-((S)-1-(4-(2-methoxypyridin-4-yl)phenyl)ethyl)-6-phenyl-1,3-oxazinan-2-one]
IC50 [1, 3]: 0.6 nM | IC50 [1, 4]: < 100 nM
